Experimental data as given in patent US4407805A, “Analgesic mixture of nalbuphine and zomepirac” (E. I. Du Pont de Nemours and Company, priority 1982, dated 1983).
Like-named read-outs stand apart in the source and are kept apart here.

Test system: phenyl-p-benzoquinone induced writhing in mice
Test: phenyl-p-benzoquinone induced writhing test in mice (antiphenylquinone writhing), oral, with isobologram analysis
Type: in vivo, mouse (male CF1)
Conditions: 20 min; for ED50: read-out: ED50 dose; for % mice blocked: oral
Procedure: The phenyl-p-benzoquinone induced writhing test in mice [H. Blumberg et al., Proc. Soc. […] The method simply consists of reading the % ED50 DOSE for each dose ratio on the best fit regression analysis curve from the mouse isobologram, multiplying each component by its effective species dose, and then forming the ratio of the amount of nalbuphine to zomepirac. […] [E. W. Pelikan, The Pharmacologist, 1, 73 (1959).]
All solutions are prepared fresh daily.
Each mouse is used only once, then discarded.
In order to study the interaction between nalbuphine and zomepirac, 6 precise dosage ratios of nalbuphine hydrochloride and zomepirac are selected.
The nature of the analgetic interaction (addition, synergism, or antagonism) is determined by graphing the results in a Loewe isobologram [S. Loewe, Pharm. Rev. 9:237-242, (1957)]. The isobologram is a quantitative method for measuring interactions between drugs where dose-effect relationships are depicted in a multi-dimensional array with lines connecting dose pairs that are equieffective in relationship to a common pharmacological endpoint. In this instance, the antiphenylquinone writhing test is used to estimate a common level of analgesic activity (ED50 dose) for the two component drugs separately and for each fixed dose-ratio combination.
If such substitution increases the response, the mixing together of the compounds is said to potentiate their effects and synergism exists.
Consider ED50 doses of mixtures of X units of compound B with Y units of compound A, whose ED50 doses are β and α, respectively. Given the hypothesis of additivity, all doses of mixtures satisfying the straight line relation,
will be ED50 doses. To test the hypothesis of additivity, ED50 doses of mixtures are estimated through probit analysis of data from experiments run at various ratios of A to B. Linear and curvilinear regression models are fitted to the data to estimate the amounts of A in respective ED50 doses, given the amount of B, (or, conversely, the amount of B, given A).
The regression is fitted to the data by the method of least squares. Residual squared deviations about the line of best fit are minimized in directions along lines from the origin through respective data points on the isobologram, these lines making angles with X-axis, tan^-1 (Y/X). This is accomplished by a transformation prior to the […] analysis. Its inverse is applied to transform the coordinates of the regression curve back to the X,Y coordinates of the isobologram.
A statistically significant regression will refute the hypothesis.
The method of least squares utilizes jointly the information contained in all of the separate data points. Statistical significance of the curvilinearity of the regression model establishes the existence of synergism (or antagonism) of the compounds in the biological system studied. The parameters in the model describe its intensity over the range of mixture ratios, from 0 to 1, the nature of which is seen readily when the regression is plotted on the isobologram.

SMILES	ED50 (drug alone, twenty minutes post oral dosing, mouse antiphenylquinone writhing test) [mg/kg]	% mice blocked (nalbuphine HCl 0 + zomepirac sodium 0.29 mg/kg) [%]	% mice blocked (nalbuphine HCl 0 + zomepirac sodium 0.58 mg/kg) [%]	% mice blocked (nalbuphine HCl 0 + zomepirac sodium 1.16 mg/kg) [%]	% mice blocked (nalbuphine HCl 0 + zomepirac sodium 2.32 mg/kg) [%]	ED50 (Mus musculus, po) [mg/kg]	% mice blocked (nalbuphine HCl 2.75 + zomepirac sodium 0 mg/kg) [%]	% mice blocked (nalbuphine HCl 5.5 + zomepirac sodium 0 mg/kg) [%]	% mice blocked (nalbuphine HCl 11 + zomepirac sodium 0 mg/kg) [%]	% mice blocked (nalbuphine HCl 22 + zomepirac sodium 0 mg/kg) [%]	% mice blocked (nalbuphine HCl 44 + zomepirac sodium 0 mg/kg) [%]
Cc1cc(CC(=O)O)n(C)c1C(=O)c1ccc(Cl)cc1 [Zomepirac Sodium, 5-(4-chlorobenzoyl)-1,4-dimethyl-1H-pyrrole-2-acetic acid]	1.66	13.3	20.0	31.1	75.6	–	–	–	–	–	–
Oc1ccc2c3c1O[C@H]1[C@@H](O)CC[C@@]4(O)[C@@H](C2)N(CC2CCC2)CC[C@]314 [Nalbuphine, (-)-17-(cyclobutylmethyl)-4,5α-epoxymorphinan-3,6α,14-triol]	–	–	–	–	–	12	15.6	24.4	62.2	68.9	84.4
